Molecules are shown by their SMILES.

IC50 data for 27 molecules are collected here from patent US4994477A, “Heterocyclic renin inhibitors” (Abbott Laboratories, priority 1988, dated 1991).

The target of this test is T1, human renal renin (Homo sapiens, UniProt P00797).
T1 construct: human renal renin, free from acid proteolytic activity; from tissue; host or cells: human kidney (from the word 'renal')
T1 sequence (P00797 67-406): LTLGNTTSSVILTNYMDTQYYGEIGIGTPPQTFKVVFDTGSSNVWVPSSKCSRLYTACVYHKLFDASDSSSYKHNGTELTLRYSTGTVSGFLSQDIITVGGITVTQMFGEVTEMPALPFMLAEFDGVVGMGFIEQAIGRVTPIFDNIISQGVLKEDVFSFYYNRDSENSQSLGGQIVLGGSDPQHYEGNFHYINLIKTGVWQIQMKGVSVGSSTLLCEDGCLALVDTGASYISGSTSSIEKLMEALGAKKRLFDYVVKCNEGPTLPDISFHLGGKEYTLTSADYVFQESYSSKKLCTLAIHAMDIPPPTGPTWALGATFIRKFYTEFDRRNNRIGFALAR
Kind of test: inhibition of human renal renin in vitro, angiotensin I formed measured by radioimmunoassay. Type of test: biochemical. Particulars: human angiotensinogen substrate, 37 degrees C, pH 6.0. The method, then: At the end of the incubation, the amount of angiotensin I formed is measured by radioimmunoassay and the molar concentration required to cause 50% inhibition, expressed as the IC50, is calculated.
Take `CC(C)C[C@H](O)[C@H](O)[C@H](CC1CCCCC1)NC(=O)[C@H](Cc1c[nH]cn1)NC(=O)c1cc2ccccc2[nH]1` [Example 35, N-(Indolyl-2-carbonyl)-His Amide of 2(S)-Amino-1-cyclohexyl-3(R),4'(S)-dihydroxy-6-methylheptane]: 3.3 nM corresponded to half-maximal inhibition (IC50).
In the case of `CC(C)C[C@H](O)[C@H](O)[C@H](CC1CCCCC1)NC(=O)[C@H](CCC(=O)OCc1ccccc1)NC(=O)c1cc2ccccc2[nH]1` [Example 37, N-(Indolyl-2-carbonyl)-γ-benzyl-Glu Amide of 2(S)-Amino-1-cyclohexyl-3(R),4(S)-dihydroxy-6-methylheptane] it was 130 nM.
Next, `CC(C)C[C@H](O)[C@H](O)[C@H](CC1CCCCC1)NC(=O)[C@H](CCC(=O)O)NC(=O)c1cc2ccccc2[nH]1` [Example 38, N-(Indolyl-2-carbonyl)-Glu Amide of 2(S)-Amino-1-cyclohexyl-3(R),4(S)-dihydroxy-6-methylheptane]: 130 nM.
Next, `CCCC[C@H](NC(=O)c1cc2ccccc2[nH]1)C(=O)N[C@@H](CC1CCCCC1)[C@@H](O)[C@@H](O)CC(C)C` [Example 40, N-(Indolyl-2-carbonyl)-Nle Amide of 2(S)-Amino-1-cyclohexyl-3(R),4(S)-dihydroxy-6-methylheptane]: 15 nM; `CC(C)C[C@H](O)[C@H](O)[C@H](CC1CCCCC1)NC(=O)[C@H](Cc1c[nH]cn1)NC(=O)c1cc2ccccc2n1C` [Example 41, N-(1-Methylindolyl-2-carbonyl)-His Amide of 2(S)-Amino-1-cyclohexyl-3(R),4(S)-dihydroxy6-methylheptane]: 160 nM.
`CC1=C(C(=O)N[C@@H](Cc2c[nH]cn2)C(=O)N[C@@H](CC2CCCCC2)[C@@H](O)[C@@H](O)CC(C)C)Cc2ccccc21` [Example 42, N-(3-Methylindenyl-2-carbonyl)-His Amide of 2(S)-Amino-1-cyclohexyl-3(R),4(S)-dihydroxy-6-methylheptane]: 200 nM corresponded to half-maximal inhibition (IC50).
Next, `CC(C)C[C@H](O)[C@H](O)[C@H](CC1CCCCC1)NC(=O)[C@H](Cc1c[nH]cn1)NC(=O)c1cc2ccccc2o1` [Example 43, N-(Benzofuranyl-2-carbonyl)-His Amide of 2(S)-Amino-1-cyclohexyl-3(R),4(S)-dihydroxy-6-methylheptane]: 10 nM; `CC(C)C[C@H](O)[C@H](O)[C@H](CC1CCCCC1)NC(=O)[C@H](Cc1c[nH]cn1)NC(=O)c1nc2ccccc2s1` [Example 45, N-(Benzothiazolyl-2-carbonyl)-His Amide of 2(S)-Amino-1-cyclohexyl-3(R),4(S)-dihydroxy-6-methylheptane]: 31 nM; `CC(C)C[C@H](O)[C@H](O)[C@H](CC1CCCCC1)NC(=O)[C@H](Cc1c[nH]cn1)NC(=O)c1nc2ccccc2n1Cc1ccccc1` [Example 48]: 170 nM.
The molecule `CCN1C[C@@H]([C@H](O)[C@H](CC2CCCCC2)NC(=O)[C@H](Cc2c[nH]cn2)NC(=O)c2cc3ccccc3[nH]2)OC1=O` [Example 51, N-(Indolyl-2-carbonyl)-His-Amide of (2'S,1'R,5S)-3-Ethyl-5-(1'-hydroxy-2'-amino-3'-cyclohexylpropyl)oxazolidin-2one] displayed an IC50 of 12 nM.
Next, `CC(C)C[C@H](O)[C@H](O)[C@H](CC1CCCCC1)NC(=O)[C@H](Cc1c[nH]cn1)N1Cc2c([nH]c3ccccc23)C1=O` [Example 58, (1'S,2"S,3"R,4"S)-2-[1-[N-(1-Cyclohexyl-3,4-dihydroxy-6-methyl-2-heptyl)carbamoyl]-2-(4-imidazolyl)ethyl]-1,2,3,4-tetrahydropyrrolo[3,4-b]indol-3-one]: 8.2 nM; `CCN1C[C@@H]([C@H](O)[C@H](CC2CCCCC2)NC(=O)[C@H](Cc2c[nH]cn2)N2Cc3c([nH]c4ccccc34)C2=O)OC1=O` [Example 59, (1'S,2"S,3"R,5'"S)-2-[1-[N-[1-Cyclohexyl-3-hydroxy-3-(3-ethyloxazolidin-2-on-5-yl)-2-propyl]carbamoyl]-2-(4-imidazolyl)ethyl]-1,2,3,4-tetrahydropyrrolo[3,4-b]indol-3-one]: 19 nM.
In the case of `CC(C)C[C@H](O)[C@H](O)[C@H](CC1CCCCC1)NC(=O)[C@H](CC(C)C)N1Cc2c([nH]c3ccccc23)C1=O` [Example 70, (1'S,2"S,3"R,4"S)-2-[1-[N-(1-cyclohexyl-3,4-dihydroxy-6-methyl-2-heptyl)carbamoyl]-3-methylbutyl]-1,2,3,4-tetrahydropyrrolo[3,4-b]indol-3-one] it was 100 nM; in that of `CC(C)C[C@H](O)[C@H](O)[C@H](CC1CCCCC1)NC(=O)CN1Cc2c([nH]c3ccccc23)C1=O` [Example 75, (2'S,3'R,4'S)-2-[N-(1-cyclohexyl-3,4-dihydroxy-6-methyl-2-heptyl)carbamoyl]methyl-1,2,3,4-tetrahydropyrrolo[3,4-b]indol-3-one], 200 nM; in that of `CC(C)C[C@H](O)[C@H](O)[C@H](CC1CCCCC1)NC(=O)[C@H](Cc1cscn1)N1Cc2c([nH]c3ccccc23)C1=O` [Example 81, (1'S,2"S,3"R,4"S)-2-[1-[N-(1-cyclohexyl-3,4-dihydroxy-6-methyl-2-heptyl)carbamoyl]-2-(4-thiazolyl)ethyl]-1,2,3,4-tetrahydropyrrolo[3,4-b]indol-3-one], 5 nM.
In the case of `CC(C)C[C@H](O)[C@H](O)[C@H](CC1CCCCC1)NC(=O)[C@H](Cc1cc[nH]n1)N1Cc2c([nH]c3ccccc23)C1=O` [Example 87, (1'S,2"S,3"R,4"S)-2-[1-[N-(1-Cyclohexyl-3,4-dihydroxy-6-methyl-2-heptyl)carbamoyl]-2-(3-pyrazolyl)ethyl]-1,2,3,4-tetrahydropyrrolo[3,4-b]indol-3-one] it was 9.5 nM; in that of `CCN1C[C@@H]([C@H](O)[C@H](CC2CCCCC2)NC(=O)C(Cc2cscn2)N2Cc3c([nH]c4ccccc34)C2=O)OC1=O` (stereo partly drawn) [Example 88, (1'RS,2"S,3"R,5"'S)-2-[1-[N-[1-Cyclohexyl-3-hydroxy-3-(3-ethyloxazolidin-2-on-5-yl)-2-propyl]carbamoyl]-2-(4-thiazolyl)ethyl]-1,2,3,4-tetrahydropyrrolo[3,4-b]indol-3-one], 28 nM.
On to `CCN1C[C@@H]([C@H](O)[C@H](CC2CCCCC2)NC(=O)C(Cc2cc[nH]n2)N2Cc3c([nH]c4ccccc34)C2=O)OC1=O` (stereo partly drawn) [Example 89, (1'RS,2"S,3"R,5"'S)-2-[1-[N-[1-Cyclohexyl-3-hydroxy-3-(3-ethyloxazolidin-2-on-5-yl)-2-propyl]carbamoyl]-2-(3-pyrazolyl)ethyl]-1,2,3,4-tetrahydropyrrolo[3,4-b]indol-3-one], for which it took 89 nM to reach half-maximal inhibition (IC50).
Next, `CCCCC(C(=O)N[C@@H](CC1CCCCC1)[C@@H](O)[C@@H](O)CC(C)C)N1Cc2c([nH]c3ccccc23)C1=O` (stereo partly drawn) [Example 93, (1'RS,2"S,3"R,4"S)-2-[1-[N-(1-Cyclohexyl-3,4-dihydroxy-6-methyl-2-heptyl)carbamoyl]pentyl]-1,2,3,4-tetrahydropyrrolo[3,4-b]indol-3-one]: 44 nM.
In the case of `CCCC[C@@H](C(=O)N[C@@H](CC1CCCCC1)[C@@H](O)[C@@H](O)CC(C)C)N1CCc2c([nH]c3ccccc23)C1=O` [Example 96] it was 66 nM.
Next, `CC(C)C[C@H](O)[C@H](O)[C@H](CC1CCCCC1)NC(=O)[C@H](Cc1c[nH]cn1)N1CCc2c([nH]c3ccccc23)C1=O` [Example 101, (1'S,2"S,3"R,4"S)-2-[1-[N-(1-Cyclohexyl-3,4-dihydroxy-6-methyl-2-heptyl)carbamoyl]-2-(4-imidazolyl)ethyl]-1,2,3,4-tetrahydro-9H-pyrido[3,4-b]indol-1-one]: 67 nM.
`CCN1C[C@@H]([C@H](O)[C@H](CC2CCCCC2)NC(=O)[C@H](Cc2c[nH]cn2)NC(=O)c2ccc3ccccc3n2)OC1=O` [Example 109, N-(Quinolinyl-2-carbonyl)-His Amide of (2'S,1'R,5S)-3-Ethyl-5-(1-hydroxy-2-amino-3-cyclohexylpropyl)oxazolidin-2-one]: the concentration for half-maximal inhibition (IC50) came to 36 nM.
In the case of `CC(C)C[C@H](O)[C@H](O)[C@H](CC1CCCCC1)NC(=O)[C@H](Cc1c[nH]cn1)NC(=O)c1ccc2ccccc2n1` [Example 110, N-(Quinolinyl-2-carbonyl)-His Amide of 2(S)-Amino-1-cyclohexyl-3(R),4(S)-dihydroxy-6-methylheptane] it was 8.7 nM; in that of `CC(C)C[C@H](O)[C@H](O)[C@H](CC1CCCCC1)NC(=O)[C@H](Cc1c[nH]cn1)NC(=O)N1CCc2ccccc2C1` [Example 114, N-(1,2,3,4-Tetrahydroisoquinolinyl-2-carbonyl)-His Amide of 2(S)-Amino-1-cyclohexyl-3(R),4(S)-dihydroxy-6-methylheptane], 63 nM.
Next, `O=C(N[C@@H](Cc1c[nH]cn1)C(=O)NCC(O)CO)c1[nH]c2ccccc2c1CCCC1CCCCC1` (stereo partly drawn) [Example 125, N-[3-(3-Cyclohexylpropyl)indolyl-2-carbonyl]-His Amide of 3-Amino-1,2-propanediol]: 3800 nM; `O=C(N[C@@H](Cc1c[nH]cn1)C(=O)NCC(O)CO)c1[nH]c2ccccc2c1CCC=CC1CCCCC1` (stereo partly drawn) [Example 127, N-[3-(4-Cyclohexylbut-3-enyl)indolyl-2-carbonyl]-His Amide of 3-Amino-1,2-propanediol]: 7000 nM.
Next, `O=C(N[C@@H](Cc1c[nH]cn1)C(=O)NCC(O)CO)c1[nH]c2ccccc2c1CCc1ccccc1` (stereo partly drawn) [Example 130, [3-(2-Phenylethyl)indolyl-2-carbonyl]-His Amide of 3-Amino-1,2-propanediol]: 10000 nM.
